The subject of experiment [1] is NOP56-G4 (DNA, G4) GGGCCTGGGCCTGGGCCTGGG
Nature of the experiment: CD melting at 295 nm. The conditions noted are these: Na+ (1 mM sodium phosphate); pH 7; 3 equivalents PDS; Tm 44.8 to 58.8 °C.

For experiment [2] the test system is unchanged. Nature of the experiment: solution NMR structure. The conditions noted are these: Na+ (1 mM sodium phosphate); pH 7, 25 °C; 0.5 mM DNA, 1.5 mM PDS; stacks on terminal G-tetrad.
The test system of experiment [3] is NOP56-G4 template (with annealed Cy5 primer) (DNA, G4) GGGCCTGGGCCTGGGCCTGGGTTTTTTTATAGTGAGTCGTATTA/TAATACGACTCACTATA
Nature of the experiment: DNA polymerase stop assay (Klenow fragment). To be noted: K+ (100 mM KCl), Na+ (50 mM NaCl), Mg2+ (10 mM MgCl2); 10 mM Tris-HCl pH 7.9, 1 mM DTT, 37 °C; PDS concentration-dependent stalling.

In experiment [4] the test system is NOP56-G4 (DNA, G4) GGGCCTGGGCCTGGGCCTGGG
Nature of the experiment: ITC. To be noted: Na+ (1 mM sodium phosphate); pH 7.0, room temperature; 200 µM PDS titrated into 10 µM DNA.

The test system is the same in experiment [5]. The experiment can be described thus: CD spectroscopy. To be noted: K+ (100 mM KCl), Na+ (1 mM sodium phosphate); pH 7, 25 °C; 20 µM DNA, 20 µM PDS; antiparallel G4 features.

We go through one compound from publication PMC12021085 (2025).

As usually defined, the KD is the constant that tells how readily two partners part at equilibrium. High values mean weaker binding, low ones tighter binding. On to `NCCOc1cc(C(=O)Nc2cc(OCCN)c3ccccc3n2)nc(C(=O)Nc2cc(OCCN)c3ccccc3n2)c1`, for which the Tm increase in experiment [1] was ~ 14 °C. The binding entry in experiment [2], in experiment [3] and in experiment [5] was “yes” throughout. For the same compound, in experiment [4], the KD was determined as 640 ± 20 nM.
